What was measured:
Type in all cases: in vivo
[1] = test system: ragweed (common ragweed, Ambrosia elatior); experiment: Test A preemergence; settings: Ambrosia artemisiifolia, pre-emergence, 240 h, preemergence, read-out: Ragweed plant response rating
Method in brief: (§1)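 Seeds sprayed preemergence with a directed soil spray, or plants at 2 to 10 cm height and one- to two-leaf stage sprayed postemergence, with test chemicals in a non-phytotoxic solvent mixture containing surfactant, in loam soil–sand blend. Injury rated visually against untreated controls after about 10 d in greenhouse, 0 (no effect) to 100 (complete control).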

[2] = test system: barnyardgrass (Echinochloa crus-galli); experiment: Test A preemergence; settings: Echinochloa crus-galli, pre-emergence, 240 h, preemergence, read-out: Barnyardgrass plant response rating
Method in brief: as §1

[3] = test system: giant foxtail (Setaria faberii); experiment: Test A preemergence; settings: Setaria faberi, pre-emergence, 240 h, preemergence, read-out: Foxtail, Giant plant response rating
Method in brief: as §1

Kochia (Kochia scoparia) [4] = experiment: Test A preemergence; settings: Bassia scoparia, pre-emergence, 240 h, preemergence, read-out: Kochia plant response rating
Method in brief: as §1

[5] = test system: pigweed (Amaranthus retroflexus); experiment: Test A preemergence; settings: Amaranthus retroflexus, pre-emergence, 240 h, preemergence, read-out: Pigweed plant response rating
[6] = test system: ryegrass, Italian (Italian ryegrass, Lolium multiflorum); experiment: Test A preemergence; settings: Lolium multiflorum, pre-emergence, 240 h, preemergence, read-out: Ryegrass, Italian plant response rating
Method in brief: as §1

corn (Zea mays) = experiment: Test A postemergence; settings: Zea mays, post-emergence, 240 h, postemergence, read-out: Corn plant response rating
Method in brief: as §1

[7] = test system: wheat (Triticum aestivum); experiment: Test A postemergence; settings: Triticum aestivum, post-emergence, 240 h, postemergence, read-out: Wheat plant response rating
Method in brief: as §1

[8] = test system: ragweed (common ragweed, Ambrosia elatior); experiment: Test A postemergence; settings: Ambrosia artemisiifolia, post-emergence, 240 h, postemergence, read-out: Ragweed plant response rating
Method in brief: as §1

[9] = test system: barnyardgrass (Echinochloa crus-galli); experiment: Test A postemergence; settings: Echinochloa crus-galli, post-emergence, 240 h, postemergence, read-out: Barnyardgrass plant response rating
Method in brief: as §1

[10] = test system: Galium (catchweed bedstraw, Galium aparine); experiment: Test A postemergence; settings: Galium, post-emergence, 240 h, postemergence, read-out: Galium plant response rating
Method in brief: as §1

[11] = test system: giant foxtail (Setaria faberii); experiment: Test A postemergence; settings: Setaria faberi, post-emergence, 240 h, postemergence, read-out: Foxtail, Giant plant response rating
Method in brief: as §1

Kochia (Kochia scoparia) [12] = experiment: Test A postemergence; settings: Bassia scoparia, post-emergence, 240 h, postemergence, read-out: Kochia plant response rating
Method in brief: as §1

[13] = test system: blackgrass (Alopecurus myosuroides); experiment: Test A postemergence; settings: Alopecurus myosuroides, post-emergence, 240 h, postemergence, read-out: Blackgrass plant response rating
Method in brief: as §1

[14] = test system: ryegrass, Italian (Italian ryegrass, Lolium multiflorum); experiment: Test A postemergence; settings: Lolium multiflorum, post-emergence, 240 h, postemergence, read-out: Ryegrass, Italian plant response rating
Method in brief: as §1

[15] = 125 g ai/ha, 0 to 100 scale where 0 is no effect and 100 is complete control, approx. 10 d
[16] = 500 g ai/ha, visual injury rating about 10 d after treatment, 0 to 100 scale (0 no effect, 100 complete control)
[17] = 125 g ai/ha, visual injury on 0 to 100 scale (0 no effect, 100 complete control), approx. 10 d
[18] = 500 g ai/ha, 0 to 100 scale, 0 is no effect, 100 is complete control

SMILES: Cc1cc([C@H]2CN(C)C(=O)[C@@H]2C(=O)Nc2ccc(F)cc2F)ccc1Br [Compound 1100]
- pest or weed control at 125 g/ha [1, 15]: 0%
- pest or weed control at 500 g/ha [1, 16]: 0%
- pest or weed control at 125 g/ha [2, 15]: 90%
- pest or weed control at 500 g/ha [2, 16]: 90%
- pest or weed control at 125 g/ha [3, 15]: 90%
- pest or weed control at 500 g/ha [3, 16]: 90%
- pest or weed control at 125 g/ha (Kochia (Kochia scoparia) [4]; [15]): 50%
- pest or weed control at 500 g/ha (Kochia (Kochia scoparia) [4]; [16]): 60%
- pest or weed control at 125 g/ha [5, 15]: 0%
- pest or weed control at 500 g/ha [5, 16]: 0%
- pest or weed control at 125 g/ha [6, 15]: 0%
- pest or weed control at 500 g/ha [6, 16]: 30%
- plant injury at 125 g/ha (corn (Zea mays); [17]): 0%
- plant injury at 500 g/ha (corn (Zea mays); [18]): 20%
- plant injury at 125 g/ha [7, 17]: 0%
- plant injury at 500 g/ha [7, 18]: 20%
- pest or weed control at 125 g/ha [8, 17]: 0%
- pest or weed control at 500 g/ha [8, 18]: 0%
- pest or weed control at 125 g/ha [9, 17]: 60%
- pest or weed control at 500 g/ha [9, 18]: 70%
- pest or weed control at 125 g/ha [10, 17]: 0%
- pest or weed control at 500 g/ha [10, 18]: 20%
- pest or weed control at 125 g/ha [11, 17]: 70%
- pest or weed control at 500 g/ha [11, 18]: 70%
- pest or weed control at 125 g/ha (Kochia (Kochia scoparia) [12]; [17]): 0%
- pest or weed control at 500 g/ha (Kochia (Kochia scoparia) [12]; [18]): 20%
- pest or weed control at 125 g/ha [13, 17]: 0%
- pest or weed control at 500 g/ha [13, 18]: 20%
- pest or weed control at 125 g/ha [14, 17]: 20%
- pest or weed control at 500 g/ha [14, 18]: 20%

Source: patent publication US12077503B2, “Substituted cyclic amides and their use as herbicides” (FMC CORPORATION, priority 2015, dated 2024)
